Laboratory results: US11667664B2, “Cyclic dinucleotides for cytokine induction” (KAYLA THERAPEUTICS, priority 2014, dated 2023)

What was measured:
[1] = test system: snake-venom phosphodiesterase (SVPD); test: Resistance to enzymatic cleavage by SVPD, monitored by UHPLC-MS (Example 2.6); details: 37° C., FIGS. 10A, 10C; for Resistance to enzymatic degradation by SVPD, compared with corresponding non-fluorinated ribo-CDN analog: 7 μg CDN, 160 μg SVPD in PBS with 0.6 mM MgCl2, 0 to 120 hours; for Resistance to SVPD, compared with corresponding analog containing two phosphodiester linkages: phosphorothioate vs phosphodiester fluorinated deoxyribo-CDNs
Procedure: (§1) • Enzymes used: snake-venom phosphodiesterase (SVPD) and nuclease P1 (NP1) • Subject CDNs tested: CL603, CL632, CL614 and CL656 • Reference (non-fluorinated) CDNs tested: c-GAMP and c-AIMP • Property evaluated: resistance to enzymatic cleavage
(§2) We incubated each CDN with either of two enzymes known to cleave nucleic acids and CDNs, and then looked for signs of degradation by UHPLC over time, by measuring the decrease in the area of the peak corresponding to the CDN (identified according to MS). Specifically, we assessed the resistance of the CDNs to snake-venom phosphodiesterase (SVPD) and nuclease P1 (NP1), both of which can degrade CDNs by cleaving the phosphodiester nucleotide linkages. The experiment was performed as follows:
(§3) Each CDN (7 […]g) was separately incubated with a solution (21 µL) of either enzyme (either 160 µg SVPD in PBS buffer containing 0.6 mM MgCl2; or 2.5 mU NP1 in 30 mM acetate buffer containing 2 mM ZnCl2 [pH 5.3]), or with water (as control) in a water bath at 37° C. Aliquots of the reaction mixture were collected at various time points from 0 to 120 hours, heated at 100° C. for 2 min, and then frozen at […] Finally, 10 µL of each aliquot was injected directly into the HPLC (Agilent 1290 Infinity UHPLC equipped with a UV-detector; column: Waters Acquity UPLC CSH C18 1.7 µm [2.1 mm×50 mm; flow rate: 0.3 mL/min]; detection at 254 nm; autosampler temperature: 25° C.) for analysis. The following gradient was used: 100% A (10 mM aq. ammonium formate) for 1 minute; then 100% A to 100% B (acetonitrile) over 5 minutes.
(§4) The percentage of absorbance of CDNs at each time point was calculated by dividing the peak area corresponding to the parent CDN, by the sum of all the peak areas in the chromatogram, and then multiplying by 100.

[2] = test system: whole blood from healthy human donors; test: Cytokine induction in vitro in whole blood from healthy human donors (Example 2.5); assay type: cell-based; details: blood diluted 1:1 in RPMI, 18 to 20 hours, averages for all 20 donors, FIG. 9; for Type I IFN induction in human whole blood (active concentration): HEK-Blue™ IFN-α/β-KO-STING reporter; for IL-1 induction in human whole blood (active concentration): HEK-Blue™ IL-1R reporter; for TNF-α induction in human whole blood (active concentration): HEK-Blue™ TNF-α reporter
Description: HEK-Blue™ cell lines: The following three cell lines also were used for biological evaluation of the CDNs. • 1. HEK-Blue™ IFN-α/β-KO-STING: These cells are derived from HEK-Blue™ IFN-α/β cells (InvivoGen catalog code: hkb-ifnab), in which the STING gene has been inactivated. HEK-Blue™ IFN-α/β cells enable detection of bioactive human type I IFNs through monitoring of activation of the ISGF3 pathway. These cells were generated by stable transfection of HEK293 cells with the human STAT2 and IRF9 genes to obtain a fully active type I IFN signaling pathway. The other genes of the pathway (IFNAR1, IFNAR2, JAK1, TyK2 and STAT1) are naturally expressed in sufficient amounts. The cells were further transfected with a SEAP reporter gene under control of an IFN-α/β-inducible ISG54 promoter. Stimulation of HEK-Blue™ IFN-α/β cells with human IFN-α or IFN-β activates the JAK/STAT/ISGF3 pathway and subsequently induces production of SEAP. Production of Type I interferons in these cells is measured using QUANTI-Blue™. • 2. HEK-Blue™ IL-1R (InvivoGen catalog code: hkb-illr): HEK-Blue™ IL-1R cells were designed to detect bioactive human and murine IL-1β through monitoring of activation of the NF-κB and AP-1 pathways. Additionally, these cells detect bioactive IL-1β from cynomolgus monkeys, dogs and rats. In fact, HEK-Blue™ IL-1R cells can detect IL-la and IL-1(3, as these cytokines bind to the same receptor, IL-1R. These cells derive from HEK-Blue™ IL-1β cells (InvivoGen catalog code: hkb-illb), in which the TNF-α response is blocked. Therefore, HEK-Blue™ IL-1R cells respond specifically to IL-1. These cells endogenously express the human IL-1 receptor and were stably transfected with the murine IL-1 receptor, rendering them very sensitive to both human and murine IL-1(3. HEK-Blue™ IL-1R cells express a SEAP reporter gene under control of an IFN-(3 minimal promoter fused to five NF-κB and five AP-1 binding sites. Binding of IL-1β to IL-1R on the surface of HEK-Blue™ IL-1R cells triggers a signaling cascade that leads to the activation of NF-κB and subsequent production of SEAP. Production of IL-1β in these cells is measured using QUANTI-Blue™. • 3. HEK-Blue™ TNF-II-[…](InvivoGen catalog code: hkb-tnfdmyd): HEK-Blue™ TNF-α cells enable detection of bioactive human and murine TNF-α through monitoring of activation of the NF-κB pathway. These cells were generated by stable transfection of HEK293 cells with a SEAP reporter gene under control of an IFN-(3 minimal promoter fused to five NF-κB and five AP-1 binding sites. They were further rendered unresponsive to IL-1β by knocking out the MyD88 gene. Stimulation of HEK-Blue™ TNF-α cells with TNF-α triggers activation of the NF-κB-inducible promoter and production of SEAP. Production of TNF-α in these cells is measured using QUANTI-Blue™. Quantification of IL-6 in Experiments
Acquisition and Handling of Human Blood Samples
Twenty human blood samples were acquired from heathy donors at the San Diego Blood Bank (3636 Gateway Center Ave, Suite 100; San Diego, Calif. 92102; USA; www.sandiegobloodbank.org). Briefly, the samples were collected by venipuncture into sodium heparin (green-cap) tubes at the time of donation, and then stored at 4° C. until pick-up. The tubes were picked up on the day of collection, stored on ice during transport, and subsequently tested with the CDNs on the same day.
Each blood sample was diluted (1:1) in RPMI medium and aliquoted into 96-well plates (180-[…]L wells) containing each CDN at six different concentrations (30 µg/mL, 10 µg/mL, 3 µg/mL, 1 µg/mL, 0.3 µg/mL and 0.1 µg/mL). The plates were incubated at 37° C. in a CO2 incubator for 18 to 20 hours. The next day the supernatants were collected, transferred into the corresponding wells of round-bottom 96-well plates, and stored at −80° C. […]

[3] = test system: mice; test: Cytokine induction in CDN-treated mice (Example 2.3); assay type: in vivo, mouse; details: Swiss mice; 10 mg/kg i.v.; 4 h post-injection; RAW ISG54 reporter cells; FIG. 6
Description: Interleukin-6 was quantified using an enzyme-linked immunoassay (ELISA) according to the manufacturer's instructions (R&D Systems).
• Species evaluated: mouse • Cyclic dinucleotides tested: CL604, CL606, CL609, CL611 and CL614 • Reference compound: c-AIMP and saline • Cytokines evaluated: IFN-α/β (using RAW ISG54 reporter cells) and IL-6 (by ELISA).
Twenty-one mice (Swiss; female; mean age: 8 weeks) were divided into seven groups of three: one group served as control (saline) and the other six groups were each treated with a cyclic dinucleotide (either c-AIMP, CL604, CL606, CL609, CL611 or CL614). On Day −7, blood samples for basal cytokine levels were collected from all mice and stored at −20° C. until analysis. On Day 1, the mice were treated with either 200 μL of physiologic serum (containing 0.9% NaCl) or 200 μL of a solution of a cyclic dinucleotide (dose: 10 mg/kg) in physiologic serum (containing 0.9% NaCl), by intravenous (i.v.) injection. Blood samples were collected from the mice at 4 h post-injection, and then stored at −20° C. until analysis. Cytokine induction was measured in the sera from the blood samples.

[4] = biological target: T1, nuclease P1 (NP1) (Penicillium citrinum, UniProt P24289); test: Resistance to enzymatic cleavage by NP1, monitored by UHPLC-MS (Example 2.6); details: 7 μg CDN; 2.5 mU NP1 in 30 mM acetate buffer with 2 mM ZnCl2, pH 5.3; 37° C.; 0 to 120 hours; FIGS. 10B, 10D
T1 sequence (P24289 1-270): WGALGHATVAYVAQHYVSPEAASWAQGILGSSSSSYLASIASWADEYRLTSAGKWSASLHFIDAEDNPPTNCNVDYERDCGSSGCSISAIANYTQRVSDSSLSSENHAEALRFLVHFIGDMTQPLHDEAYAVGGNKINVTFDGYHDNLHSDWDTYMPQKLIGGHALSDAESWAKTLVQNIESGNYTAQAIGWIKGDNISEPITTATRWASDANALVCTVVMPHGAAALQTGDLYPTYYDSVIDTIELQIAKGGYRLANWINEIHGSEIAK
Procedure: as §1, §2, §3, §4

[5] = literature example (Li, 2014); cited from earlier work

## Nc1ncnc2c1ncn2C1OC2COP(=O)(S)O[C@@H]3C(COP(=O)(S)O[C@H]2[C@H]1F)OC(n1cnc2c(=O)[nH]cnc21)[C@@H]3F (mixture of isomers) [CL656]
[1]
  Resistance to enzymatic degradation by SVPD, compared with corresponding non-fluorinated ribo-CDN analog: more resistant to enzymatic degradation
  Resistance to SVPD, compared with corresponding analog containing two phosphodiester linkages: more resistant to SVPD
[2]
  Type I IFN induction in human whole blood (active concentration): more active than is its corresponding non-fluorinated analog
  IL-1 induction in human whole blood (active concentration): more active than is its corresponding non-fluorinated analog
  TNF-α induction in human whole blood (active concentration): more active than is its corresponding non-fluorinated analog

## Nc1ncnc2c1ncn2C1OC2COP(=O)(O)O[C@H]3C(n4cnc5c(=O)[nH]cnc54)OC(COP(=O)(O)O[C@@H]1[C@@H]2O)[C@H]3O (some centres unmarked) [CL611]
[3]
  Type I interferon (IFN-α/β) induction in sera from mice: except CL611 strongly induced Type I interferons

## Nc1nc2c(ncn2C2OC3COP(=O)(O)O[C@@H]4C(COP(=O)(O)O[C@H]3[C@H]2F)OC(n2cnc3c(N)ncnc32)[C@@H]4F)c(=O)[nH]1 (some centres unmarked) [CL603]
[4]
  Resistance to enzymatic degradation by NP1, compared with corresponding non-fluorinated ribo-CDN analog: more resistant to enzymatic degradation
[1]
  Resistance to enzymatic degradation by SVPD, compared with corresponding non-fluorinated ribo-CDN analog: more resistant to enzymatic degradation
[2]
  Type I IFN induction in human whole blood (active concentration): more active than is its corresponding non-fluorinated analog
  IL-1 induction in human whole blood (active concentration): more active than is its corresponding non-fluorinated analog
  TNF-α induction in human whole blood (active concentration): more active than is its corresponding non-fluorinated analog

## Nc1nc2c(ncn2[C@@H]2O[C@@H]3COP(O)(=S)O[C@H]4[C@@H](O)[C@H](n5cnc6c(N)ncnc65)O[C@@H]4COP(=O)(S)O[C@@H]2[C@@H]3O)c(=O)[nH]1 (stereo partly drawn) [(2′,3′) c-GAMP(S)]
[5]
  Resistance to enzymatic hydrolysis compared with phosphodiester analog: more resistant to enzymatic hydrolysis

## Nc1nc2c(ncn2C2OC3COP(=O)(S)O[C@@H]4C(COP(=O)(S)O[C@H]3[C@H]2F)OC(n2cnc3c(N)ncnc32)[C@@H]4F)c(=O)[nH]1 (some centres unmarked) [CL632]
[4]
  Resistance to enzymatic degradation by NP1, compared with corresponding non-fluorinated ribo-CDN analog: more resistant to enzymatic degradation
[1]
  Resistance to enzymatic degradation by SVPD, compared with corresponding non-fluorinated ribo-CDN analog: more resistant to enzymatic degradation
  Resistance to SVPD, compared with corresponding analog containing two phosphodiester linkages: more resistant to SVPD

## Nc1ncnc2c1ncn2C1OC2COP(=O)(O)O[C@@H]3C(COP(=O)(O)O[C@H]2[C@H]1F)OC(n1cnc2c(=O)[nH]cnc21)[C@@H]3F (some centres unmarked) [CL614]
[4]
  Resistance to enzymatic degradation by NP1, compared with corresponding non-fluorinated ribo-CDN analog: more resistant to enzymatic degradation
[1]
  Resistance to enzymatic degradation by SVPD, compared with corresponding non-fluorinated ribo-CDN analog: more resistant to enzymatic degradation
[2]
  Type I IFN induction in human whole blood (active concentration): more active than is its corresponding non-fluorinated analog
  IL-1 induction in human whole blood (active concentration): more active than is its corresponding non-fluorinated analog
  TNF-α induction in human whole blood (active concentration): more active than is its corresponding non-fluorinated analog
